{"source": "patent US20260256792A1", "about": "“TREATMENT OF CHRONIC SPONTANEOUS URTICARIA BY ADMINISTERING (R)-2-[3-[4-AMINO-3-(2-FLUORO-4-PHENOXY-PHENYL)PYRAZOLO[3,4-D]PYRIMIDIN-1-YL]PIPERIDINE-1-CARBONYL]-4-METHYL-4-[4-(OXETAN-3-YL)PIPERAZIN-1-YL]PENT-2-ENENITRILE” (priority 2023, published 2026)", "test_system": "moderate-to-severe chronic spontaneous urticaria (CSU)", "experiment": "Phase 2 CSU study: urticaria activity score over 7 days (UAS7)", "type": "in vivo, human", "conditions": "Omalizumab-naïve, 400 mg TID", "text": "The study comprises a 12 week, randomized, double-blind, placebo-controlled, multi-center, dose-ranging efficacy and safety phase, followed by a 40 week open label extension (OLE) phase (see FIG. 1). The study consists of three phases and an optional OLE phase. […] Clinically, CSU is characterized by the spontaneous and recurrent appearance of pruritic hives. The proposed primary endpoints were the UAS7 at Week 12 in EU and EU reference countries and the ISS7 in the US. Regardless of where a participant was from, all assessments were the same. The UAS7 score is a composite score containing both the HSS7 and the ISS7. This allowed a global assessment of the two key components of urticaria: hives and itch. […] The UAS is a validated PRO measure. […] The daily UAS scores range from 0 to 6 point/day. […] Patients were to complete the UAS using the e-diary. […] The following secondary endpoints were to be analyzed using the same approach as for the primary endpoint: • Change from baseline in UAS7 at Week 4 • Change from baseline in UAS7 at Week 12 (for US and US reference countries) • Change from baseline in ISS7 at Week 12 (except US and US reference countries) • Change from baseline in HSS7 at Week 12 The following responder secondary endpoints were to be analyzed using the Cochran-Mantel-Haenszel test adjusted by region: • Proportion of participants with UAS7<6 at Week 12 • Proportion of participants with UAS7=0 at Week 12 Participants who received selected prohibited medications and/or rescue medications were to be considered as non-responders for time points after the medication usage. For other participants, all available data including those collected during the off-treatment period were to be used to determine the responder/non-responder status. Missing data were to be considered as non-responders.", "data": [{"smiles": "CC(C)(C=C(C#N)C(=O)N1CCC[C@@H](n2nc(-c3ccc(Oc4ccccc4)cc3F)c3c(N)ncnc32)C1)N1CCN(C2COC2)CC1", "note": "[rilzabrutinib, (R)-2-[3-[4-amino-3-(2-fluoro-4-phenoxy-phenyl)pyrazolo[3,4-d]pyrimidin-1-yl]piperidine-1-carbonyl]-4-methyl-4-[4-(oxetan-3-yl)piperazin-1-yl]pent-2-enenitrile]", "values": [{"measurement": "Imputed non-responder n (%), UAS7 = 0", "setting": "Week 3", "value": "0 n (%)"}, {"measurement": "Imputed non-responder n (%), UAS7 ≤6", "setting": "Week 3", "value": "0 n (%)"}, {"measurement": "Non-responder n (%), UAS7 = 0", "setting": "Week 3", "value": "32 (91.4) n (%)"}, {"measurement": "Non-responder n (%), UAS7 ≤6", "setting": "Week 3", "value": "27 (77.1) n (%)"}, {"measurement": "OR for rilzabrutinib vs. placebo, UAS7 = 0", "setting": "Week 3", "value": 3.625}, {"measurement": "OR for rilzabrutinib vs. placebo, UAS7 ≤6", "setting": "Week 3", "value": 3.239}, {"measurement": "RRD (%) for rilzabrutinib vs. placebo, UAS7 = 0", "setting": "Week 3", "value": 5.8, "unit": "%"}, {"measurement": "RRD (%) for rilzabrutinib vs. placebo, UAS7 ≤6", "setting": "Week 3", "value": 13.6, "unit": "%"}, {"measurement": "Responder n (%), UAS7 = 0", "setting": "Week 3", "value": "3 (8.6) n (%)"}, {"measurement": "Responder n (%), UAS7 ≤6", "setting": "Week 3", "value": "8 (22.9) n (%)"}, {"measurement": "Imputed non-responder n (%), UAS7 = 0", "setting": "Week 4", "value": "3 (8.6) n (%)"}, {"measurement": "Imputed non-responder n (%), UAS7 ≤6", "setting": "Week 4", "value": "3 (8.6) n (%)"}, {"measurement": "Non-responder n (%), UAS7 = 0", "setting": "Week 4", "value": "32 (91.4) n (%)"}, {"measurement": "Non-responder n (%), UAS7 ≤6", "setting": "Week 4", "value": "30 (85.7) n (%)"}, {"measurement": "OR for rilzabrutinib vs. placebo, UAS7 = 0", "setting": "Week 4", "value": 1.460}, {"measurement": "OR for rilzabrutinib vs. placebo, UAS7 ≤6", "setting": "Week 4", "value": 1.185}, {"measurement": "RRD (%) for rilzabrutinib vs. placebo, UAS7 = 0", "setting": "Week 4", "value": 2.5, "unit": "%"}, {"measurement": "RRD (%) for rilzabrutinib vs. placebo, UAS7 ≤6", "setting": "Week 4", "value": 1.8, "unit": "%"}, {"measurement": "Responder n (%), UAS7 = 0", "setting": "Week 4", "value": "3 (8.6) n (%)"}, {"measurement": "Responder n (%), UAS7 ≤6", "setting": "Week 4", "value": "5 (14.3) n (%)"}, {"measurement": "Imputed non-responder n (%), UAS7 = 0", "setting": "Week 5", "value": "2 (5.7) n (%)"}, {"measurement": "Imputed non-responder n (%), UAS7 ≤6", "setting": "Week 5", "value": "2 (5.7) n (%)"}, {"measurement": "Non-responder n (%), UAS7 = 0", "setting": "Week 5", "value": "29 (82.9) n (%)"}, {"measurement": "Non-responder n (%), UAS7 ≤6", "setting": "Week 5", "value": "25 (71.4) n (%)"}, {"measurement": "OR for rilzabrutinib vs. placebo, UAS7 = 0", "setting": "Week 5", "value": 6.971}, {"measurement": "OR for rilzabrutinib vs. placebo, UAS7 ≤6", "setting": "Week 5", "value": 5.923}, {"measurement": "RRD (%) for rilzabrutinib vs. placebo, UAS7 = 0", "setting": "Week 5", "value": 13.2, "unit": "%"}, {"measurement": "RRD (%) for rilzabrutinib vs. placebo, UAS7 ≤6", "setting": "Week 5", "value": 19.7, "unit": "%"}, {"measurement": "Responder n (%), UAS7 = 0", "setting": "Week 5", "value": "6 (17.1) n (%)"}, {"measurement": "Responder n (%), UAS7 ≤6", "setting": "Week 5", "value": "10 (28.6) n (%)"}, {"measurement": "Imputed non-responder n (%), UAS7 = 0", "setting": "Week 6", "value": "4 (11.4) n (%)"}, {"measurement": "Imputed non-responder n (%), UAS7 ≤6", "setting": "Week 6", "value": "4 (11.4) n (%)"}, {"measurement": "Non-responder n (%), UAS7 = 0", "setting": "Week 6", "value": "28 (80.0) n (%)"}, {"measurement": "Non-responder n (%), UAS7 ≤6", "setting": "Week 6", "value": "27 (77.1) n (%)"}, {"measurement": "OR for rilzabrutinib vs. placebo, UAS7 = 0", "setting": "Week 6", "value": 8.082}, {"measurement": "OR for rilzabrutinib vs. placebo, UAS7 ≤6", "setting": "Week 6", "value": 1.274}, {"measurement": "RRD (%) for rilzabrutinib vs. placebo, UAS7 = 0", "setting": "Week 6", "value": 15.6, "unit": "%"}, {"measurement": "RRD (%) for rilzabrutinib vs. placebo, UAS7 ≤6", "setting": "Week 6", "value": 3.7, "unit": "%"}, {"measurement": "Responder n (%), UAS7 = 0", "setting": "Week 6", "value": "7 (20.0) n (%)"}, {"measurement": "Responder n (%), UAS7 ≤6", "setting": "Week 6", "value": "8 (22.9) n (%)"}, {"measurement": "Imputed non-responder n (%), UAS7 = 0", "setting": "Week 7", "value": "5 (14.3) n (%)"}, {"measurement": "Imputed non-responder n (%), UAS7 ≤6", "setting": "Week 7", "value": "5 (14.3) n (%)"}, {"measurement": "Non-responder n (%), UAS7 = 0", "setting": "Week 7", "value": "32 (91.4) n (%)"}, {"measurement": "Non-responder n (%), UAS7 ≤6", "setting": "Week 7", "value": "26 (74.3) n (%)"}, {"measurement": "OR for rilzabrutinib vs. placebo, UAS7 = 0", "setting": "Week 7", "value": 3.625}, {"measurement": "OR for rilzabrutinib vs. placebo, UAS7 ≤6", "setting": "Week 7", "value": 2.685}, {"measurement": "RRD (%) for rilzabrutinib vs. placebo, UAS7 = 0", "setting": "Week 7", "value": 5.8, "unit": "%"}, {"measurement": "RRD (%) for rilzabrutinib vs. placebo, UAS7 ≤6", "setting": "Week 7", "value": 13.4, "unit": "%"}, {"measurement": "Responder n (%), UAS7 = 0", "setting": "Week 7", "value": "3 (8.6) n (%)"}, {"measurement": "Responder n (%), UAS7 ≤6", "setting": "Week 7", "value": "9 (25.7) n (%)"}, {"measurement": "Imputed non-responder n (%), UAS7 = 0", "setting": "Week 8", "value": "7 (20.0) n (%)"}, {"measurement": "Imputed non-responder n (%), UAS7 ≤6", "setting": "Week 8", "value": "7 (20.0) n (%)"}, {"measurement": "Non-responder n (%), UAS7 = 0", "setting": "Week 8", "value": "32 (91.4) n (%)"}, {"measurement": "Non-responder n (%), UAS7 ≤6", "setting": "Week 8", "value": "26 (74.3) n (%)"}, {"measurement": "OR for rilzabrutinib vs. placebo, UAS7 = 0", "setting": "Week 8", "value": 1.351}, {"measurement": "OR for rilzabrutinib vs. placebo, UAS7 ≤6", "setting": "Week 8", "value": 1.513}, {"measurement": "RRD (%) for rilzabrutinib vs. placebo, UAS7 = 0", "setting": "Week 8", "value": 1.9, "unit": "%"}, {"measurement": "RRD (%) for rilzabrutinib vs. placebo, UAS7 ≤6", "setting": "Week 8", "value": 6.3, "unit": "%"}, {"measurement": "Responder n (%), UAS7 = 0", "setting": "Week 8", "value": "3 (8.6) n (%)"}, {"measurement": "Responder n (%), UAS7 ≤6", "setting": "Week 8", "value": "9 (25.7) n (%)"}, {"measurement": "Imputed non-responder n (%), UAS7 = 0", "setting": "Week 9", "value": "6 (17.1) n (%)"}, {"measurement": "Imputed non-responder n (%), UAS7 ≤6", "setting": "Week 9", "value": "6 (17.1) n (%)"}, {"measurement": "Non-responder n (%), UAS7 = 0", "setting": "Week 9", "value": "32 (91.4) n (%)"}, {"measurement": "Non-responder n (%), UAS7 ≤6", "setting": "Week 9", "value": "24 (68.6) n (%)"}, {"measurement": "OR for rilzabrutinib vs. placebo, UAS7 = 0", "setting": "Week 9", "value": 0.893}, {"measurement": "OR for rilzabrutinib vs. placebo, UAS7 ≤6", "setting": "Week 9", "value": 3.358}]}]}
